This is an account of results in publication PMC7279038, “Antioxidant and Neuroprotective Effects Induced by Cannabidiol and Cannabigerol in Rat CTX-TNA2 Astrocytes and Isolated Cortexes” (International Journal of Molecular Sciences, 2020).

Assay [1] in a line: ABTS scavenging ability test. The conditions noted are these: mean ± S.D., n = 3. How it is done: For the 2,2′-azino-bis(3-ethylbenzothiazoline) 6-sulfonic acid (ABTS) radical scavenging assay, ABTS+ was produced directly by reacting 7 mM ABTS solution with 2.45 mM potassium persulfate and allowing the mixture to stand for […] in the dark at room temperature. Prior to beginning the assay, ABTS solution was diluted with methanol to an absorbance of 0.700 ± 0.02 at 734 nm. Sample solution was added to ABTS solution (2 mL) and mixed. The sample absorbance was read at 734 nm after a 30 min incubation at room temperature. The ABTS radical scavenging activity was expressed as IC50 values.

Assay [2] in a line: DPPH scavenging ability test. The conditions noted are these: mean ± S.D., n = 3. The method, then:
For the 1,1-diphenyl-2-picrylhydrazyl (DPPH) radical scavenging assay, sample solution was added to 4 mL of a 0.004% methanol solution of DPPH. The sample absorbance was read at 517 nm after a 30 min incubation at room temperature in the dark. DPPH radical scavenging activity was expressed as IC50 values.

The test system of assay [3] is isolated rat prefrontal cortex, 5-HT. In words: H2O2-induced reduction in 5-HT level in isolated cortexes. The note with it: hydrogen peroxide 300 µM; CBD 1000 nM, CBG 1 nM. How it is done:
Sprague–Dawley rats (200–250 g) were sacrificed by CO2 inhalation and isolated prefrontal cortex specimens were immediately explanted and exposed to 300 µM H2O2 and different concentrations of CBD (1–1000 nM) and CBG (1–1000 nM) for one hour, at 37 °C. The nitrite concentration in the resuspension buffer was determined by colorimetric Griess assay. Specifically, cortex specimens were homogenized for 2 min with Potter–Elvehjem homogenizer in 2 mL DMEM buffer. The homogenate was centrifuged at 4500 g for 10 min and nitrite production was determined in the supernatant fraction by mixing 50 µL of the assay buffer with 50 µL of Griess reagent (1.5% sulfanilamide in 1M HCl plus 0.15% N-(1-naphthyl) ethylenediamine dihydrochloride in distilled water, v/v). After 10 min incubation at room temperature, the absorbance at 540 nm was determined and nitrite concentrations were calculated from a sodium nitrite standard curve. […]
Tissue 3-HK, 5-HT and 5HIIA levels were analyzed through an HPLC apparatus consisting of a Jasco (Tokyo, Japan) PU-2080 chromatographic pump and an ESA (Chelmsford, MA, USA) Coulochem III coulometric detector, equipped with a microdialysis cell (ESA-5014b), a porous graphite working electrode and a solid state palladium reference electrode. The analytical conditions for identification and quantification were selected according to previous studies. […]

A short description of assay [4]: Ferric reducing antioxidant power (FRAP). The conditions noted are these: mean ± S.D., n = 3. The method, then:
For the ferric reducing antioxidant power (FRAP) activity assay, sample solution was added to premixed FRAP reagent (2 mL) containing acetate buffer (0.3 M, pH 3.6), 2,4,6-tris(2-pyridyl)-S-triazine (TPTZ) (10 mM) in 40 mM HCl and ferric chloride (20 mM) in a ratio of 10:1:1 (v/v/v). Then, the sample absorbance was read at 593 nm after a 30 min incubation at room temperature. FRAP activity was expressed as IC50 values.

Assay [5] has as its system CTX-TNA2 astrocyte cell line. In words: Apoptosis occurrence, Annexin-V/PI flow cytometry. Format: cell-based, rat. The note with it: challenged with H2O2; CBD 1000 nM, CBG 1 nM; 24 h, lasting up to 48 h. How it is done:
The CTX-TNA2 rat astrocytes were purchased from the European Collection of Cell Cultures (ECACC), Sigma-Aldrich, Milan, Italy, and cultured as already indicated. Cells were grown in Dulbecco’s Modified Eagle Medium supplemented with 10% of FBS and penicillin–streptomycin (100 µgmL^−1) (all from EuroClone SpA Life-Sciences-Division, Milan, Italy) and maintained in a humified atmosphere of 5% CO2 at 37 °C. Cells were subcultivated at a ratio of 1.2 to 1.8 and the medium was changed every 3 days. CTX-TNA2 astrocytes were plated in 25 or 75 cm^2 flasks, according to experimental needing and cells between the eight and the 15 passage were used.
When indicated, the cells were treated with H2O2 300 µM for three hours and different concentrations of CBD (1–1000 nM) and CBG (1–1000 nM). The stock solutions were diluted in cell medium to the point that the concentration of DMSO in the samples was less than 0.0003%. Therefore, the addition of DMSO to the control samples was not necessary.
A FITC Annexin-V apoptosis detection kit (BD Pharmingen, San Diego, CA, USA) was used to assess apoptosis, according to the manufacturer’s instructions. […] After the addition of 200 µL of binding buffer, samples were analyzed with a Cytoflex flow cytometer with the FL1 and FL3 detector in a log mode, using the Cytoexpert analysis software (both from Beckmann Coulter). […]

A value given as a limit tells only on which side of the number the result lay.

Consider `C=C(C)[C@@H]1CCC(C)=C[C@H]1c1c(O)cc(CCCCC)cc1O` [CBD, Cannabidiol], for which the IC50 in assay [1] is 1040 ± 10 µM; in assay [2], 1870 ± 40 µM; in assay [4], greater than 2000 µM. In addition, the “effect on H2O2-induced 5-HT depletion” value in assay [3] is given as “blunting effect on 5-HT depletion”. The “early apoptosis (Annexin-Vpos/PIneg cells)” value in assay [5] is reported as “reduce early apoptosis”.

In the case of `CCCCCc1cc(O)c(C/C=C(\C)CCC=C(C)C)c(O)c1` [CBG, cannabigerol], the IC50 in assay [1] is 1030 ± 10 µM; in assay [2] it was 1950 ± 10 µM; in assay [4], greater than 2000 µM. For the same molecule, the “effect on H2O2-induced 5-HT depletion” value in assay [3] was “same effect at the concentration of 1 nM”. Besides, in assay [5], the “early apoptosis (Annexin-Vpos/PIneg cells)” value was “reduce early apoptosis”.
